Data reported in the supplement of paper PMC13380429.
Counter-ions that a name gives are not always drawn.

Key:
Conditions in all cases: 72 h
HepG2 [1] = assay: relative viability EC50 (midpoint between 100% and the lowest measured viability); higher = less toxic
Calu-3 [2] = assay: as above
U2OS [3] = assay: as above
Caco-2 [4] = assay: as above
HepG2 [5] = assay: drug sensitivity score (DSS) for viability; higher = more toxic; extreme values may be limits of the assay
Calu-3 [6] = assay: as above
U2OS [7] = assay: as above
Caco-2 [8] = assay: as above
HepG2 [9] = assay: cell viability relative to DMSO; higher = less toxic
Calu-3 [10] = assay: as above
U2OS [11] = assay: as above
Caco-2 [12] = assay: as above
Vero E6 [13] = assay: drug sensitivity score (DSS) for viability; higher = more toxic; extreme values may be limits of the assay
Vero E6 [14] = assay: cell viability relative to DMSO; higher = less toxic

| SMILES | relative viability EC50 (HepG2 [1]) [µM] | relative viability EC50 (Calu-3 [2]) [µM] | relative viability EC50 (U2OS [3]) [µM] | relative viability EC50 (Caco-2 [4]) [µM] | drug sensitivity score (HepG2 [5]) | drug sensitivity score (Calu-3 [6]) | drug sensitivity score (U2OS [7]) | drug sensitivity score (Caco-2 [8]) | cell viability (HepG2 [9]; 1 nM) [%] | cell viability (HepG2 [9]; 10 nM) [%] | cell viability (HepG2 [9]; 100 nM) [%] | cell viability (HepG2 [9]; 1000 nM) [%] | cell viability (HepG2 [9]; 10000 nM) [%] | cell viability (Calu-3 [10]; 1 nM) [%] | cell viability (Calu-3 [10]; 10 nM) [%] | cell viability (Calu-3 [10]; 100 nM) [%] | cell viability (Calu-3 [10]; 1000 nM) [%] | cell viability (Calu-3 [10]; 10000 nM) [%] | cell viability (U2OS [11]; 1 nM) [%] | cell viability (U2OS [11]; 10 nM) [%] | cell viability (U2OS [11]; 100 nM) [%] | cell viability (U2OS [11]; 1000 nM) [%] | cell viability (U2OS [11]; 10000 nM) [%] | cell viability (Caco-2 [12]; 1 nM) [%] | cell viability (Caco-2 [12]; 10 nM) [%] | cell viability (Caco-2 [12]; 100 nM) [%] | cell viability (Caco-2 [12]; 1000 nM) [%] | cell viability (Caco-2 [12]; 10000 nM) [%] | drug sensitivity score (Vero E6 [13]) | cell viability (Vero E6 [14]; 1 nM) [%] | cell viability (Vero E6 [14]; 10 nM) [%] | cell viability (Vero E6 [14]; 100 nM) [%] | cell viability (Vero E6 [14]; 1000 nM) [%] | cell viability (Vero E6 [14]; 10000 nM) [%] |
| --- | --- | --- | --- | --- | --- | --- | --- | --- | --- | --- | --- | --- | --- | --- | --- | --- | --- | --- | --- | --- | --- | --- | --- | --- | --- | --- | --- | --- | --- | --- | --- | --- | --- | --- |
| Cc1c(N)cccc1Cn1ccc(OCCc2cccs2)cc1=O | > 10 | > 10 | > 10 | > 10 | 0 | 0 | 0 | 0 | 93.3 | 104 | 94.1 | 99.8 | 93.2 | 95.9 | 100 | 106 | 102 | 93.4 | 99.5 | 101 | 95.4 | 97.1 | 95 | 91.2 | 91.6 | 91.1 | 98.5 | 84.3 |  |  |  |  |  |  |
| Cc1cccc2c1CC[C@H](CN1CCC(c3c(Cl)cccc3Cl)CC1)C[C@@H]2O | 1.65 |  |  |  | 5.5 | 4.2 | 2.8 | 4.7 | 104 | 102 | 93.3 | 86.5 | 38.5 | 93.8 | 106 | 89.1 | 83.8 | 51.2 | 102 | 106 | 95.2 | 94.2 | 62.1 | 93.9 | 95.8 | 91.3 | 78.3 | 58.1 | 2.2 | 99.2 | 104 | 95 | 90.2 | 70 |
| CCCCCCN(CCCCCC)C(=O)Cc1c(-c2ccc(Cl)cc2)[nH]c2ccc(Cl)cc12 [FGIN-1-43] | > 10 | > 10 | > 10 | > 10 | 0 | 0 | 0 | 0.5 | 104 | 94.9 | 106 | 98.2 | 97 | 91.5 | 106 | 99.4 | 101 | 103 | 98.4 | 103 | 103 | 104 | 95.2 | 101 | 102 | 101 | 93.5 | 86.8 |  |  |  |  |  |  |
| CS(=O)(=O)c1ccc(-c2nnc(/C=C/c3nnc(-c4ccc(C#N)cc4)o3)n2-c2ccccc2Cl)nc1 [G007-LK] | > 10 |  | > 10 | > 10 | 0.1 | 11.1 | 1.4 | 2.6 | 107 | 106 | 101 | 92.8 | 89.5 | 105 | 93.4 | 67.1 | 66 | 77.2 | 94.7 | 98 | 91.8 | 85.8 | 83.5 | 104 | 108 | 93.1 | 83.1 | 94.1 | 7.5 | 99.2 | 105 | 95.1 | 61.7 | 57.8 |
| COc1ccc(C2(CNC(=O)c3ccc(NC(=O)c4ccco4)cc3)CCOCC2)cc1 [JW-55] | > 10 |  | > 10 | > 10 | 0 |  | 0 | 0 | 100 | 117 | 94.9 | 102 | 89.3 |  |  |  |  |  | 103 | 95.9 | 97.8 | 95.2 | 90.8 | 101 | 91.6 | 97.8 | 92.1 | 93.6 | 1.6 | 103 | 108 | 97.3 | 102 | 62.6 |
| CN1CCC(NC(=O)c2cc(-c3c(O)cc(O)cc3Oc3ccc([N+](=O)[O-])cc3)on2)CC1 [NMS-E973] | 0.108 | 0.669 | 0.65 | 0.874 | 23.6 | 7 | 13.6 | 8.3 | 108 | 101 | 55 | 0.9 | 0.9 | 93.7 | 101 | 90.4 | 68.4 | 44 | 94.2 | 103 | 99.5 | 28.2 | 3.7 | 99.1 | 97.8 | 101 | 61.3 | 33.7 | 1.4 | 109 | 100 | 106 | 108 | 62.2 |
| CN(C)CC/C=C1/c2ccccc2COc2ccc(CC(=O)O)cc21 [Olopatadine hydrochloride (Opatanol)] |  |  |  |  | 0 | 0 | 0 |  |  |  |  |  |  |  |  |  |  |  |  |  |  |  |  |  |  |  |  |  | 0 |  |  |  |  |  |
| c1ccc(C(NCc2cccnc2)(c2ccccc2)c2ccccc2)cc1 [UCL-2077] | > 10 | > 10 | > 10 | > 10 | 0 | 0 | 0 | 0 | 97.4 | 104 | 97.3 | 92.6 | 94.6 | 96.7 | 86.1 | 89.6 | 94.2 | 94.8 | 96.9 | 98.5 | 101 | 106 | 103 | 101 | 103 | 96.7 | 103 | 91.4 |  |  |  |  |  |  |
| C[C@H]1O[C@H](O[C@H]2[C@H](O)[C@@H](O)[C@@H](O[C@H]3[C@H](O)[C@@H](O)C(O)O[C@@H]3CO)O[C@@H]2CO)[C@H](O)[C@@H](O)[C@@H]1N[C@H]1C=C(CO)[C@@H](O)[C@H](O)[C@H]1O (stereo partly drawn) [acarbose] |  |  |  |  | 0 | 0 |  |  |  |  |  |  |  |  |  |  |  |  |  |  |  |  |  |  |  |  |  |  | 0 |  |  |  |  |  |
| CNC1CCCN(c2c(F)cc3c(=O)c(C(=O)O)cn(C4CC4)c3c2OC)C1 (stereo not drawn) [balofloxacin] | > 10 | > 10 | > 10 | > 10 | 0 | 0 | 0 | 0 | 114 | 97.5 | 93.1 | 104 | 104 | 104 | 94.8 | 101 | 97.7 | 102 | 113 | 102 | 97.5 | 103 | 93.2 | 105 | 98.3 | 98.4 | 93.3 | 99.9 |  |  |  |  |  |  |
| CCN(CCCOc1ccc2c(Nc3cc(CC(=O)Nc4cccc(F)c4)[nH]n3)ncnc2c1)CCOP(=O)(O)O [barasertib] |  | > 10 | > 10 | > 10 | 6 | 0 | 0 | 0.4 | 93.4 | 94.7 | 70.7 | 82.9 | 75 | 112 | 94.2 | 102 | 92.2 | 91.3 | 101 | 101 | 98 | 100 | 89.7 | 99.4 | 99.7 | 79.1 | 102 | 82.9 | 1.9 | 94.3 | 96.9 | 101 | 93.7 | 74.2 |
| Cc1c(-c2ccc(-c3ccccc3F)cc2)nc2ccc(F)cc2c1C(=O)O [brequinar] | 0.563 | > 10 | > 10 | > 10 | 8.3 | 0 | 0 | 0 | 105 | 104 | 95.6 | 59.2 | 41.8 | 96.4 | 93.9 | 101 | 106 | 99.6 | 98.2 | 93.1 | 103 | 103 | 103 | 123 | 93.8 | 93.4 | 105 | 111 | 6.6 | 92.9 | 93.3 | 93.5 | 66.3 | 64.2 |
| O=c1[nH]c(=O)c2ccccc2o1 [carsalam] | > 10 | > 10 | > 10 | > 10 | 0 | 0 | 0 | 0 | 96 | 100 | 103 | 98.1 | 101 | 89.6 | 93.5 | 104 | 106 | 108 | 98.9 | 102 | 97.3 | 102 | 103 | 99.5 | 95.4 | 92.5 | 104 | 98.8 |  |  |  |  |  |  |
| CN[C@@H]1[C@H](O[C@H]2[C@H](O[C@H]3[C@H](O)[C@@H](O)[C@H](NC(=N)N)[C@@H](O)[C@@H]3NC(=N)N)O[C@@H](C)[C@]2(O)CO)O[C@@H](CO)[C@H](O)[C@H]1O [dihydrostreptomycin] | > 10 | > 10 | > 10 | > 10 | 0 | 0 | 0 | 0 | 109 | 100 | 101 | 105 | 98.5 | 97.8 | 97.1 | 106 | 96.9 | 94.8 | 102 | 105 | 97.3 | 107 | 97.3 | 99.2 | 94.3 | 97.6 | 93.8 | 104 |  |  |  |  |  |  |
| O=C(Nc1nc2cccc(-c3ccc(CN4CCS(=O)(=O)CC4)cc3)n2n1)C1CC1 [filgotinib] |  | > 10 |  | > 10 | 2.3 | 0 |  | 0 | 100 | 99.1 | 96.4 | 102 | 53.4 | 95.7 | 105 | 98.2 | 87.5 | 97.4 |  |  |  |  |  | 111 | 104 | 93.2 | 95.7 | 96.5 |  |  |  |  |  |  |
| CC(=O)O[C@H]1C[C@@]2(C)[C@@H](C[C@@H](O)[C@H]3[C@@]4(C)CC[C@@H](O)[C@@H](C)[C@@H]4CC[C@@]32C)/C1=C(\CCC=C(C)C)C(=O)O [fusidic-acid] |  | > 10 | > 10 | > 10 |  | 0.3 | 0 | 0 |  |  |  |  |  | 96 | 109 | 93.7 | 93.5 | 86.1 | 98.8 | 104 | 99.6 | 106 | 100 | 103 | 116 | 89.6 | 104 | 99.5 |  |  |  |  |  |  |
